# Assay results: patent US9856279B2 (AGIOS PHARMACEUTICALS, INC, priority 2011, dated 2018)
# Experiments:
# HT1080 cells = experiment: Cellular assay for IDH1m inhibitors: inhibition of 2-HG production (LC-MS, 48 hours) in HT1080 cells; format: cell-based; settings: Homo sapiens, HT-1080; inhibition of 2-HG production, HT1080 cells; read-out: HT1080 IC50
# Summary of the method: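 The read-out is 2-HG in culture medium, measured by LC-MS after 48 h of compound exposure (0.2% DMSO) in cells plated overnight at 5000 per well in DMEM/10% FBS. IC50 is 50% reduction relative to DMSO wells. Luminescent viability (Cell Titer Glo) followed at 72 h.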
# IDH1 R132H = IDH1 R132H (Homo sapiens, UniProt O75874, R132H); experiment: Assay for IDH1 R132H inhibitors (NADPH/aKG, resazurin detection); format: biochemical; settings: enzyme assay of Example 12; read-out: IDH1R132H IC50
# Summary of the method: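 Read-out is resorufin fluorescence (Ex544/Em590) 5 min after adding a 30 μM resazurin detection mix. Before that, mutant enzyme (0.2 μg/ml in its mix) ran 50 min at room temperature with compound, 8 uM NADPH and 2 mM aKG (mix levels) in Tris pH 7.5 with NaCl, MgCl2, BSA.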
# U87MG cells = experiment: Cellular assay for IDH1m inhibitors: inhibition of 2-HG production (LC-MS, 48 hours) in U87MG cells; format: cell-based; settings: Homo sapiens, U-87 MG, inhibition of 2-HG production, U87R132H cells; read-out: U87R132H IC50
# Procedure: Cells (e.g., HT1080 or U87MG) and are grown in T125 flasks in DMEM containing 10% FBS, 1× penicillin/streptomycin and 500 ug/mL G418. They are harvested by trypsin and seeded into 96 well white bottom plates at a density of 5000 cell/well in 100 ul/well in DMEM with 10% FBS. No cells are plates in columns 1 and 12. Cells are incubated overnight at 37° C. in 5% CO2. The next day compounds are made up at 2× concentration and 100 ul are added to each cell well. The final concentration of DMSO is 0.2% and the DMSO control wells are plated in row G. The plates are then placed in the incubator for 48 hours. At 48 hours, 100 μl of media is removed from each well and analyzed by LC-MS for 2-HG concentrations. The cell plate is placed back in the incubator for another 24 hours. At 72 hours post compound addition, 10 mL/plate of Promega Cell Titer Glo reagent is thawed and mixed. The cell plate is removed from the incubator and allowed to equilibrate to room temperature. Then 100 ul of reagent is added to each well of media. The cell plate is then placed on an orbital shaker for 10 minutes and then allowed to sit at room temperature for 20 minutes. The plate is then read for luminescence with an integration time of 500 ms.
# The IC50 for inhibition of 2-HG production (concentration of test compound to reduce 2HG production by 50% compared to control) in these two cell lines for various compounds of formula I is set forth in Table 4 above.
# Sequence of IDH1 R132H (O75874 whole entry R132H): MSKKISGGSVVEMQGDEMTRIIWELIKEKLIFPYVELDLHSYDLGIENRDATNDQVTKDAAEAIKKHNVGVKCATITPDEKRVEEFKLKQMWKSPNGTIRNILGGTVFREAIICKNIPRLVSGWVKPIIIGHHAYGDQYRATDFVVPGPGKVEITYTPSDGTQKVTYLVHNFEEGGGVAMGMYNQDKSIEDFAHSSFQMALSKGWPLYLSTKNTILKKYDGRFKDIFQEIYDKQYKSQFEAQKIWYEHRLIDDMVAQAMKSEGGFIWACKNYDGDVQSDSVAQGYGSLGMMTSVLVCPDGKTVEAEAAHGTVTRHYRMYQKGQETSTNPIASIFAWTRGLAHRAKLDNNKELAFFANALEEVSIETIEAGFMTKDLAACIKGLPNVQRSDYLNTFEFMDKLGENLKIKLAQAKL
compound,measurement,setting,value
"COCCC(=O)N1CCN(c2nc(C3CC3)c(-c3ccc(S(N)(=O)=O)cc3)c(C)c2C#N)C[C@H]1C [Compound 393, (R)-4-{5-cyano-2-cyclopropyl-6-[4-(3-methoxy-propionyl)-3-methyl-piperazin-1-yl]-4-methyl-pyridin-3-yl}-benzenesulfonamide]",IC50,HT1080 cells,1000 to 10000 nM
same,IC50,IDH1 R132H,< 500 nM
same,IC50,U87MG cells,500 to 1000 nM
"COCCC(=O)N1CCN(c2nc(C3CC3)c(OCc3cccc(NC(=O)CBr)c3)cc2C#N)C[C@H]1C [Compound 382, (R)-2-bromo-N-(3-((5-cyano-2-cyclopropyl-6-(4-(3-methoxypropanoyl)-3-methylpiperazin-1-yl)pyridin-3-yloxy)methyl)phenyl)acetamide]",IC50,HT1080 cells,< 500 nM
same,IC50,IDH1 R132H,< 500 nM
same,IC50,U87MG cells,500 to 1000 nM
"C=C(C)C(=O)Nc1cccc(-c2cc(C#N)c(N3CCN(C(=O)CCOC)[C@H](C)C3)nc2C2CC2)c1 [Compound 449, (R)—N-(3-(5-cyano-2-cyclopropyl-6-(4-(3-methoxypropanoyl)-3-methylpiperazin-1-yl)pyridin-3-yl)phenyl)methacrylamide]",IC50,HT1080 cells,1000 to 10000 nM
same,IC50,IDH1 R132H,500 to 1000 nM
same,IC50,U87MG cells,1000 to 10000 nM
"C=Cc1cc(-c2cc(C#N)c(N3CCN(C(=O)CCO)[C@H](C4CC4)C3)nc2C2CC2)cnn1 [Compound 686, (R)-6-cyclopropyl-2-(3-cyclopropyl-4-(3-hydroxypropanoyl)piperazin-1-yl)-5-(6-vinylpyridazin-4-yl)nicotinonitrile]",IC50,HT1080 cells,< 500 nM
same,IC50,IDH1 R132H,< 500 nM
same,IC50,U87MG cells,< 500 nM
"COCCC(=O)N1CCN(c2nc(C3CC3)c(-c3ccncc3)c(C)c2C#N)C[C@H]1C [Compound 268, (R)-2-cyclopropyl-6-(4-(3-methoxypropanoyl)-3-methylpiperazin-1-yl)-4-methyl-3,4′-bipyridine-5-carbonitrile]",IC50,HT1080 cells,1000 to 10000 nM
same,IC50,IDH1 R132H,500 to 1000 nM
same,IC50,U87MG cells,1000 to 10000 nM
"C=Cc1cc(-c2c(C3CC3)nc(N3CCN(C(=O)CCC4CCCC4)[C@H](C4CC4)C3)c(C#N)c2C)ccn1 [Compound 797, (R)-6-(4-(3-cyclopentylpropanoyl)-3-cyclopropylpiperazin-1-yl)-2-cyclopropyl-4-methyl-2′-vinyl-3,4′-bipyridine-5-carbonitrile]",IC50,HT1080 cells,< 500 nM
same,IC50,IDH1 R132H,< 500 nM
same,IC50,U87MG cells,< 500 nM
"C=Cc1cnnc(-c2cc(C#N)c(N3CCN(C(=O)C[C@H]4CCO4)[C@H](C4CC4)C3)nc2C2CC2)c1 [Compound 766, 6-cyclopropyl-2-((R)-3-cyclopropyl-4-(2-((R)-oxetan-2-yl)acetyl)piperazin-1-yl)-5-(5-vinylpyridazin-3-yl)nicotinonitrile]",IC50,HT1080 cells,< 500 nM
same,IC50,IDH1 R132H,< 500 nM
same,IC50,U87MG cells,< 500 nM
"C=Cc1cc(Nc2cc(C#N)c(N3CCN(C(=O)CCOC)[C@H](C4CC4)C3)nc2C2CC2)ccn1 [Compound 678, (R)-6-cyclopropyl-2-(3-cyclopropyl-4-(3-methoxypropanoyl)piperazin-1-yl)-5-((2-vinylpyridin-4-yl)amino)nicotinonitrile]",IC50,HT1080 cells,< 500 nM
same,IC50,IDH1 R132H,< 500 nM
same,IC50,U87MG cells,< 500 nM
"C=Cc1cnc2c(-c3c(C4CC4)nc(N4CCN(C(=O)CCOC)[C@H](C(C)C)C4)c(C#N)c3C)cccc2n1 [Compound 765, 6-cyclopropyl-2-((R)-3-isopropyl-4-(3-methoxypropanoyl)piperazin-1-yl)-4-methyl-5-(2-vinylquinoxalin-5-yl)nicotinonitrile]",IC50,HT1080 cells,< 500 nM
same,IC50,IDH1 R132H,< 500 nM
same,IC50,U87MG cells,< 500 nM
"C#Cc1ccnc(N(c2cc(C#C)ccn2)c2cc(C#N)c(N3CCN(C(=O)CCOC)[C@H](C)C3)nc2C2CC2)c1 [Compound 714, (R)-5-(bis(4-ethynylpyridin-2-yl)amino)-6-cyclopropyl-2-(4-(3-methoxypropanoyl)-3-methylpiperazin-1-yl)nicotinonitrile]",IC50,HT1080 cells,< 500 nM
same,IC50,IDH1 R132H,< 500 nM
same,IC50,U87MG cells,< 500 nM
"COCCC(=O)N1CCN(c2nc(C3CC3)c(-c3cn(C)c(=O)c4ccccc34)cc2C#N)C[C@H]1C [Compound 418, (R)-6-cyclopropyl-2-[4-(3-methoxy-propionyl)-3-methyl-piperazin-1-yl]-5-(2-methyl-1-oxo-1,2-dihydro-isoquinolin-4-yl)-nicotinonitrile]",IC50,HT1080 cells,< 500 nM
same,IC50,IDH1 R132H,< 500 nM
same,IC50,U87MG cells,< 500 nM
"C=Cc1cc(-c2cc(C#N)c(N3CCN(C(=O)CC(F)(F)F)[C@H](C4CC4)C3)nc2C2CC2)ccn1 [Compound 498, (R)-2-cyclopropyl-6-(3-cyclopropyl-4-(3,3,3-trifluoropropanoyl)piperazin-1-yl)-2′-vinyl-3,4′-bipyridine-5-carbonitrile]",IC50,HT1080 cells,< 500 nM
same,IC50,IDH1 R132H,< 500 nM
same,IC50,U87MG cells,< 500 nM
"COCCC(=O)N1CCN(c2nc(C3CC3)c(Nc3ccnc4ccccc34)cc2C#N)C[C@H]1C [Compound 356, (R)-6-cyclopropyl-2-(4-(3-methoxypropanoyl)-3-methylpiperazin-1-yl)-5-(quinolin-4-ylamino)nicotinonitrile]",IC50,HT1080 cells,1000 to 10000 nM
same,IC50,IDH1 R132H,< 500 nM
same,IC50,U87MG cells,1000 to 10000 nM
"C=Cc1cc(-c2cc(C#N)c(N3CCN(C(=O)CCOC)[C@H](C)C3)nc2C2CC2)c2cccnc2n1 [Compound 599, (R)-6-cyclopropyl-2-(4-(3-methoxypropanoyl)-3-methylpiperazin-1-yl)-5-(2-vinyl-1,8-naphthyridin-4-yl)nicotinonitrile]",IC50,HT1080 cells,< 500 nM
same,IC50,IDH1 R132H,< 500 nM
same,IC50,U87MG cells,< 500 nM
"C=Cc1cnnc(-c2c(C3CC3)nc(N3CCN(C(=O)C[C@H]4CCO4)[C@H](C(C)C)C3)c(C#N)c2C)c1 [Compound 793, 6-cyclopropyl-2-((R)-3-isopropyl-4-(2-((R)-oxetan-2-yl)acetyl)piperazin-1-yl)-4-methyl-5-(5-vinylpyridazin-3-yl)nicotinonitrile]",IC50,HT1080 cells,< 500 nM
same,IC50,IDH1 R132H,< 500 nM
same,IC50,U87MG cells,< 500 nM
"C=Cc1cc(Nc2cc(C#N)c(N3CCN(C(=O)CCO)[C@H](C4CC4)C3)nc2C2CC2)ccn1 [Compound 676, (R)-6-cyclopropyl-2-(3-cyclopropyl-4-(3-hydroxypropanoyl)piperazin-1-yl)-5-((2-vinylpyridin-4-yl)amino)nicotinonitrile]",IC50,HT1080 cells,< 500 nM
same,IC50,IDH1 R132H,< 500 nM
same,IC50,U87MG cells,< 500 nM
"COCCC(=O)N1CCN(c2nc(C3CC3)c(OCc3ccncc3)cc2C#N)C[C@H]1C [Compound 309, (R)-6-cyclopropyl-2-(4-(3-methoxypropanoyl)-3-methylpiperazin-1-yl)-5-(pyridin-4-ylmethoxy)nicotinonitrile]",IC50,HT1080 cells,500 to 1000 nM
same,IC50,IDH1 R132H,< 500 nM
same,IC50,U87MG cells,500 to 1000 nM
"C=Cc1ccnc(Nc2cc(C#N)c(N3CCN(C(=O)CC4CCCO4)[C@H](C4CC4)C3)nc2C2CC2)c1 (stereo partly drawn) [Compound 813, 6-cyclopropyl-2-((3R)-3-cyclopropyl-4-(2-(tetrahydrofuran-2-yl)acetyl)piperazin-1-yl)-5-((4-vinylpyridin-2-yl)amino)nicotinonitrile]",IC50,HT1080 cells,< 500 nM
same,IC50,IDH1 R132H,< 500 nM
same,IC50,U87MG cells,< 500 nM
"COCCC(=O)N1CCN(c2nc(C3CC3)c(-c3ccc4cc(OC)ccc4c3)c(C)c2C#N)C[C@H]1C [Compound 278, (R)-6-cyclopropyl-5-(6-methoxynaphthalen-2-yl)-2-(4-(3-methoxypropanoyl)-3-methylpiperazin-1-yl)-4-methylnicotinonitrile]",IC50,HT1080 cells,1000 to 10000 nM
same,IC50,IDH1 R132H,500 to 1000 nM
same,IC50,U87MG cells,1000 to 10000 nM
COCCC(=O)N1CCN(c2nc(C3CC3)c(-c3ccc(F)nc3)c(C)c2C#N)C[C@H]1C [Compound 346],IC50,HT1080 cells,1000 to 10000 nM
same,IC50,IDH1 R132H,< 500 nM
same,IC50,U87MG cells,500 to 1000 nM
"COCCC(=O)N1CCN(c2nc(C3CC3)c(-c3cccc(NC(=O)C4(C#N)CC4)c3)cc2C#N)C[C@H]1C [Compound 425, (R)-1-cyano-N-(3-(5-cyano-2-cyclopropyl-6-(4-(3-methoxypropanoyl)-3-methylpiperazin-1-yl)pyridin-3-yl)phenyl)cyclopropanecarboxamide]",IC50,HT1080 cells,1000 to 10000 nM
same,IC50,IDH1 R132H,500 to 1000 nM
same,IC50,U87MG cells,1000 to 10000 nM
"C=Cc1cc(Nc2cc(C#N)c(N3CCN(C(=O)COC)[C@H](C4CC4)C3)nc2C2CC2)ccn1 [Compound 711, (R)-6-cyclopropyl-2-(3-cyclopropyl-4-(2-methoxyacetyl)piperazin-1-yl)-5-((2-vinylpyridin-4-yl)amino)nicotinonitrile]",IC50,HT1080 cells,< 500 nM
same,IC50,IDH1 R132H,< 500 nM
same,IC50,U87MG cells,< 500 nM
